# Measured values: ChEMBL document CHEMBL4342498, “Design and Discovery of an Orally Efficacious Spiroindolinone-Based Tankyrase Inhibitor for the Treatment of Colon Cancer” (J Med Chem, 2020)
# Key:
# [1] = Tmax in ICR mouse at 50 mg/kg, po; assay type: ADME, organism-based; details: in vivo
# [2] = Half life in ICR mouse at 50 mg/kg, ip; assay type: ADME, organism-based; details: in vivo
# [3] = Cmax in ICR mouse at 50 mg/kg, po; assay type: ADME, organism-based; set-up: dose 50 mg/kg, route oral; details: in vivo
# [4] = Protein binding in mouse plasma assessed as unbound fraction at 1 uM measured after 24 hrs by LC-MS/MS analysis; assay type: ADME, cell-free
# [5] = Net efflux ratio of permeability across basolateral to apical side over apical to basolateral side in MDCK2-MDR1 cells to MDCK2 cells; assay type: ADME, cell-based, Canis lupus familiaris; details: dog, mdck
# Tankyrase 1/2 [6] = target: T1, Tankyrase 1/2 (Homo sapiens, UniProt Q9H2K2+O95271); details: hek293
# T1 sequence (Q9H2K2 whole entry): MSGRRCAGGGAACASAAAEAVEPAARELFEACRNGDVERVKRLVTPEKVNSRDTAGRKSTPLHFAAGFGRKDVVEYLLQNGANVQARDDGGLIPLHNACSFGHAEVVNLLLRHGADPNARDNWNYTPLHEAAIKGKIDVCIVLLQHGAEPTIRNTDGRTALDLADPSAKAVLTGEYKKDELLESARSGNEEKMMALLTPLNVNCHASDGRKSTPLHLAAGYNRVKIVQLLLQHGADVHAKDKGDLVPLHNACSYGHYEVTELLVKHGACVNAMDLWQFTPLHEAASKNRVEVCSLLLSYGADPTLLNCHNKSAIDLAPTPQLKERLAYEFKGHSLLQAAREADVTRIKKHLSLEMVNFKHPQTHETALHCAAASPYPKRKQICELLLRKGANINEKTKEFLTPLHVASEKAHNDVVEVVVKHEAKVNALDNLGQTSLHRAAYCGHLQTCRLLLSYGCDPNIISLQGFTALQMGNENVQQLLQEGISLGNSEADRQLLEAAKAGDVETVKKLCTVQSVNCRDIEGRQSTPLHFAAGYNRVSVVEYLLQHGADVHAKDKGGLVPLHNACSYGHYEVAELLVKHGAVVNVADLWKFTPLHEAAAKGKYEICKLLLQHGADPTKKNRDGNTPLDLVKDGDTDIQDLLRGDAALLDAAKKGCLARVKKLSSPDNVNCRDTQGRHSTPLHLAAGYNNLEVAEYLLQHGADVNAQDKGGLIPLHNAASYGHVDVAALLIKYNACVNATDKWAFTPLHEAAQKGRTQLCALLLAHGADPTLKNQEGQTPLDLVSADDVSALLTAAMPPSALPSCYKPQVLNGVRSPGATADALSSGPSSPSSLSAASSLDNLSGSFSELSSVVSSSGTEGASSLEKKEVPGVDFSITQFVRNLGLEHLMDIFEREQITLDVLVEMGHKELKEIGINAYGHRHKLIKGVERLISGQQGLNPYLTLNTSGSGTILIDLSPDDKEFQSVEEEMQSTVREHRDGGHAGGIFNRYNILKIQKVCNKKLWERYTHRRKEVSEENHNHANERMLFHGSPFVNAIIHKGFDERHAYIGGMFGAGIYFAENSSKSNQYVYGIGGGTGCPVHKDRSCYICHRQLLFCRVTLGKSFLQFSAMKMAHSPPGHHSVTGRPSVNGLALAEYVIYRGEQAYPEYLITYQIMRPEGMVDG
# T1 sequence (O95271 whole entry): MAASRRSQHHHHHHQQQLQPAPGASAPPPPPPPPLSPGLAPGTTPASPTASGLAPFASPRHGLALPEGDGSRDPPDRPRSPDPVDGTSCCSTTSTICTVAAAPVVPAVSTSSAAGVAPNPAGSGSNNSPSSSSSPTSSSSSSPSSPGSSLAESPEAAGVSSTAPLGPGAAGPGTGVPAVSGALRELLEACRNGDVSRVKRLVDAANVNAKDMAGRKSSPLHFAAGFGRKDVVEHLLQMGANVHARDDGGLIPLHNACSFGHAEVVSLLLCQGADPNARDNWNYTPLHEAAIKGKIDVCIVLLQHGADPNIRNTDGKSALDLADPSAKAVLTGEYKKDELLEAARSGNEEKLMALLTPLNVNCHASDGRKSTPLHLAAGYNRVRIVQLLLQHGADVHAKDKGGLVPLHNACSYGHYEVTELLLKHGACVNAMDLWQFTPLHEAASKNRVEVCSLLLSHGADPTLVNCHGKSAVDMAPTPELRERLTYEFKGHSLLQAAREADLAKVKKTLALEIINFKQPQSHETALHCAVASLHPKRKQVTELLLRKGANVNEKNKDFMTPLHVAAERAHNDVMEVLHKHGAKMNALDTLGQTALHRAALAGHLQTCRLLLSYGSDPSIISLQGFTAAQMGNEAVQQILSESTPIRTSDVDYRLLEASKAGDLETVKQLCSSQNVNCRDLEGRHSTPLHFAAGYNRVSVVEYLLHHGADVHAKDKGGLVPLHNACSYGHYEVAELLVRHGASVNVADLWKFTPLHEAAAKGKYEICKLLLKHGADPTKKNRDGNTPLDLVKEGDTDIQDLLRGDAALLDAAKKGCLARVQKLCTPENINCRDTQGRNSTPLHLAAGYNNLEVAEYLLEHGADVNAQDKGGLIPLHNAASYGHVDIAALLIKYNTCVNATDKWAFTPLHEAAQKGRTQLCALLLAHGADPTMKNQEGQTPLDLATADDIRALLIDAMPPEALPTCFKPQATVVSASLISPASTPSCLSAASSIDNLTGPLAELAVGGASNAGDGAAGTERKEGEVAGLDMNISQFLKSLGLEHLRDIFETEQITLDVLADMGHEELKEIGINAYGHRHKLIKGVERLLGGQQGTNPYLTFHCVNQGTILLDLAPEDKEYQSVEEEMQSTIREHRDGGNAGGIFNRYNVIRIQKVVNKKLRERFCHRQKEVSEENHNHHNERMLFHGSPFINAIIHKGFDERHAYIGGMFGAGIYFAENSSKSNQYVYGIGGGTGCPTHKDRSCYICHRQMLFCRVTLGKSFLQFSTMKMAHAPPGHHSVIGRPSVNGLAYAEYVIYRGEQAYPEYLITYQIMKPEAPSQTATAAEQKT
# Description: Inhibition of TNKS/TNKS2 (unknown origin) expressed in HEK293 cells assessed as reduction in Wnt-signaling measured after 24 hrs by TCF-luciferase reporter gene assay
# [7] = target: T2, Poly [ADP-ribose] polymerase tankyrase-1 (Homo sapiens, UniProt O95271)
# T2 sequence (O95271 whole entry): T1 sequence (O95271 whole entry)
# Description: Inhibition of recombinant human N-terminal TEV cleavage site-fused/FLAG-poly his-tagged TNKS SAM-PARP domain (1024 to 1327 residues) expressed in Escherichia coli assessed as reduction in auto-PARylation preincubated for 10 mins followed by biotinylated-NAD+ addition and measured after 45 mins by ELISA
# Tankyrase 1/2 [8] = target: T1, Tankyrase 1/2
# Description: Inhibition of TNKS/TNKS2 (unknown origin) expressed in human DLD1 cells assessed as reduction in Wnt-signaling measured after 24 hrs by TCF-luciferase reporter gene assay
# [9] = Half life in ICR mouse at 50 mg/kg, po; assay type: ADME, organism-based; details: in vivo
# [10] = Permeability of the compound measured after 4 hrs by PAMPA; assay type: ADME; details: read-out: permeability
# physchem = details: phosphate buffered saline, pH 7.4
# [11] = Protein binding in human plasma assessed as unbound fraction at 1 uM measured after 24 hrs by LC-MS/MS analysis; assay type: ADME, cell-free
# [12] = Stability in human liver microsomes assessed as parent compound remaining at 1 uM measured after 60 mins in presence of NADPH by LC-MS/MS analysis; assay type: ADME, Microsome; details: read-out: Stability
# [13] = AUC (infinity) in ICR mouse at 50 mg/kg, po; assay type: ADME, organism-based; set-up: dose 50 mg/kg, time infinity, route oral; details: in vivo
Tmax [1] [h],half-life [2] [h],Cmax [3] [µM],"fraction unbound at 24 h, 1 µM [4]",Ratio [5],IC50 (Tankyrase 1/2 [6]) [nM],IC50 [7] [nM],IC50 (Tankyrase 1/2 [8]) [nM],half-life [9] [h],Papp at 4 h [10] [×10⁻⁶ cm/s],"solubility at 1 h, 200 µM (physchem) [µg/mL]","fraction unbound at 24 h, 1 µM [11]","remaining at 1 h, 1 µM [12] [%]",AUC(0-inf) [13] [µM·h],Compound
1,1.9,121,0.006,1.1,0.3,36.1,3.1,1.8,12.4,34.1,0.003,28.7 to 55.9,594,C[C@@H]1CN(c2cc(F)c3c(c2)N(C)C(=O)C32CCN(c3nc4c(c(=O)[nH]3)CCCN4C)CC2)C[C@H](C)O1
0.25,2.5,21.2,0.019,4.3,0.9,7.7,8.4,4,12.8,94.5,0.004,30.5 to 54.5,77,CN1CCN(c2cc(F)c3c(c2)N(C)C(=O)C32CCN(c3nc4c(c(=O)[nH]3)CCCN4C)CC2)CC1
